Experimental findings from ChEMBL document CHEMBL5291721, “A preclinical secondary pharmacology resource illuminates target-adverse drug reaction associations of marketed drugs” (Nat Commun, 2023) are described below.

In one assay the target is T1, Adenosine receptor A1 (Homo sapiens, UniProt P30542).
T1 sequence (P30542 whole entry): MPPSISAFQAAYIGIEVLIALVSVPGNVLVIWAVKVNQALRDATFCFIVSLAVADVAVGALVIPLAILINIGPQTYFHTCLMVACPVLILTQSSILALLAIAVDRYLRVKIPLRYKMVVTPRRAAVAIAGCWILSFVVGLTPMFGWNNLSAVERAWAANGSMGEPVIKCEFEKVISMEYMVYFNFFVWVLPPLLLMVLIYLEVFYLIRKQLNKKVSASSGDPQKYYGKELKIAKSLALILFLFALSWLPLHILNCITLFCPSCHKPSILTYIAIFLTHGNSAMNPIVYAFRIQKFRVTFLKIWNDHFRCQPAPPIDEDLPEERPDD

The target of the next assay is Histamine H3 receptor (Homo sapiens, UniProt Q9Y5N1).
Assay [1] has as its target T2, Neuropeptide Y receptor type 1 (Homo sapiens, UniProt P25929).
T2 sequence (P25929 whole entry): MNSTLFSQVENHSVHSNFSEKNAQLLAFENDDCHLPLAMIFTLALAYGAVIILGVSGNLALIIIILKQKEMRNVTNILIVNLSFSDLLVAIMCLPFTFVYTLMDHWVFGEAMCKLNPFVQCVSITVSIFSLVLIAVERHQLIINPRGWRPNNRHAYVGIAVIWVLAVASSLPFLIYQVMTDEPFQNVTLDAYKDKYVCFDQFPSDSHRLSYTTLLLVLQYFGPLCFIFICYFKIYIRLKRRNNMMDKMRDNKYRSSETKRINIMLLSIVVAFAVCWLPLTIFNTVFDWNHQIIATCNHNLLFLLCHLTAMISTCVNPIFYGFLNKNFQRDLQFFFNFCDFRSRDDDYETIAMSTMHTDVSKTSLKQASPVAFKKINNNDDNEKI

For assay [2], the target named is cGMP-inhibited 3',5'-cyclic phosphodiesterase 3A (Homo sapiens, UniProt Q14432). Format: functional.
In assay [3] the target is T3, Alpha-2B adrenergic receptor (Homo sapiens, UniProt P18089).
T3 sequence (P18089 whole entry): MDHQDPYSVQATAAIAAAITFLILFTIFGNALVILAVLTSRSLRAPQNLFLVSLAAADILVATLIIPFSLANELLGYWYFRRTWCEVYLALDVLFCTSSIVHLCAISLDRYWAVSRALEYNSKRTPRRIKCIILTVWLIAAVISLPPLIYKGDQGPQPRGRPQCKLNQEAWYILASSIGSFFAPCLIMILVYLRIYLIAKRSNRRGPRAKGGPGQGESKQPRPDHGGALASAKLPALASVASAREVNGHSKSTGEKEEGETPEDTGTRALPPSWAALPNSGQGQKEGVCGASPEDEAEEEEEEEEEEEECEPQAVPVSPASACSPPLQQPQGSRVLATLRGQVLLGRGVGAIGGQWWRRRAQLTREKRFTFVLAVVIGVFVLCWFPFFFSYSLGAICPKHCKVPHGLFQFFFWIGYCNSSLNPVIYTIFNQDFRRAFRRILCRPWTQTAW

The target in another assay is D(1A) dopamine receptor (Homo sapiens, UniProt P21728). Format: functional, cell-based.
The target in assay [4] is 3',5'-cyclic-AMP phosphodiesterase 4D (Homo sapiens, UniProt Q08499). Type of assay: functional.
The target of assay [5] is T4, Alpha-2C adrenergic receptor (Homo sapiens, UniProt P18825).
T4 sequence (P18825 whole entry): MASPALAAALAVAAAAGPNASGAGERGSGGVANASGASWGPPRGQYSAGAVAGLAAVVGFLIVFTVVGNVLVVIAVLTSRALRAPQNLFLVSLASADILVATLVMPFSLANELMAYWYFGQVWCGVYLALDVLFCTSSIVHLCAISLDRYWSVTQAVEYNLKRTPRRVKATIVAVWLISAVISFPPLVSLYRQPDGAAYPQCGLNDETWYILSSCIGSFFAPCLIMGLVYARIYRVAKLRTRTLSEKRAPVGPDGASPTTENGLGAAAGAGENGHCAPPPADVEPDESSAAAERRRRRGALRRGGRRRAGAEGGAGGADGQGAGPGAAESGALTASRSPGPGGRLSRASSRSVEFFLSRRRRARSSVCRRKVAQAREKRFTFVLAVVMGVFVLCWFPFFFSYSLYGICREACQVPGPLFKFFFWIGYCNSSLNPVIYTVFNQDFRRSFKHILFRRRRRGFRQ
Type of assay: functional.

Assay [6] deals with Delta-type opioid receptor (Homo sapiens, UniProt P41143).
Another assay addresses T5, Estrogen receptor (Homo sapiens, UniProt P03372).
T5 sequence (P03372 whole entry): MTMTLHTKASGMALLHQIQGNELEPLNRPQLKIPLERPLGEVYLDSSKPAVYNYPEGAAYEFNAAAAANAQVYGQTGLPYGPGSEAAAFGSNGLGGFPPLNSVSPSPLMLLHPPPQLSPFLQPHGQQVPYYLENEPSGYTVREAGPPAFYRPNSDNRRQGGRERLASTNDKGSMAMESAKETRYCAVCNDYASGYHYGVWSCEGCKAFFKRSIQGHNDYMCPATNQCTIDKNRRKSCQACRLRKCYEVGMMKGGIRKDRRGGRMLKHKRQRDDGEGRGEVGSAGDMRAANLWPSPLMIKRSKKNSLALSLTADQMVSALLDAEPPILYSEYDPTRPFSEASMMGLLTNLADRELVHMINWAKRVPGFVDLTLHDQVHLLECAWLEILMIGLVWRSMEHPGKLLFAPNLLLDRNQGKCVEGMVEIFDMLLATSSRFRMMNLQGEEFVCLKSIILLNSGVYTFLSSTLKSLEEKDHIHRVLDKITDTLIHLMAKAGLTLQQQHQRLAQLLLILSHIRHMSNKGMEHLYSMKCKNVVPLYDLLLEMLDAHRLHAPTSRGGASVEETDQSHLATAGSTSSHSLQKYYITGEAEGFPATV

Molecules are shown by their SMILES.
Note: assay procedure not described here.

Sequence of 3',5'-cyclic-AMP phosphodiesterase 4D (Q08499 whole entry): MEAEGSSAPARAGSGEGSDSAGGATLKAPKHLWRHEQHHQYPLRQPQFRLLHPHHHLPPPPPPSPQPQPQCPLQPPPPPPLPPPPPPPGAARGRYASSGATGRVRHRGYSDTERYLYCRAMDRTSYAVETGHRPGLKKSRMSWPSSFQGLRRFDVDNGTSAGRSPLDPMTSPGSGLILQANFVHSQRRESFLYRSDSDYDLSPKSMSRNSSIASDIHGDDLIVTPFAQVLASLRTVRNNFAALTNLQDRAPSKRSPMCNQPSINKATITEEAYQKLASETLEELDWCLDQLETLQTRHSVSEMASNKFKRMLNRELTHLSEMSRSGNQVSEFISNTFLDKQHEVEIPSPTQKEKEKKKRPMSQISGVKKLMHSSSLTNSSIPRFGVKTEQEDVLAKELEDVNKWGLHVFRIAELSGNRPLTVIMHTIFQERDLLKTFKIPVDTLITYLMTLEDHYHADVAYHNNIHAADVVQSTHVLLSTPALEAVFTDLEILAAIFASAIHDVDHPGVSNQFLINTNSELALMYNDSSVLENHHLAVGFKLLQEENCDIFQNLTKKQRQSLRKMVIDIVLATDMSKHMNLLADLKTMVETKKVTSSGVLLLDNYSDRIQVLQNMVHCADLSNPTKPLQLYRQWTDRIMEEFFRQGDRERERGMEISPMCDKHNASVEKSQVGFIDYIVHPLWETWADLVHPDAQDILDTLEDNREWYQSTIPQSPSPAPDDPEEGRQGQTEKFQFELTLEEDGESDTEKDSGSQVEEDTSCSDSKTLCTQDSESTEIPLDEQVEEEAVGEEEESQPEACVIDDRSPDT
Sequence of cGMP-inhibited 3',5'-cyclic phosphodiesterase 3A (Q14432 whole entry): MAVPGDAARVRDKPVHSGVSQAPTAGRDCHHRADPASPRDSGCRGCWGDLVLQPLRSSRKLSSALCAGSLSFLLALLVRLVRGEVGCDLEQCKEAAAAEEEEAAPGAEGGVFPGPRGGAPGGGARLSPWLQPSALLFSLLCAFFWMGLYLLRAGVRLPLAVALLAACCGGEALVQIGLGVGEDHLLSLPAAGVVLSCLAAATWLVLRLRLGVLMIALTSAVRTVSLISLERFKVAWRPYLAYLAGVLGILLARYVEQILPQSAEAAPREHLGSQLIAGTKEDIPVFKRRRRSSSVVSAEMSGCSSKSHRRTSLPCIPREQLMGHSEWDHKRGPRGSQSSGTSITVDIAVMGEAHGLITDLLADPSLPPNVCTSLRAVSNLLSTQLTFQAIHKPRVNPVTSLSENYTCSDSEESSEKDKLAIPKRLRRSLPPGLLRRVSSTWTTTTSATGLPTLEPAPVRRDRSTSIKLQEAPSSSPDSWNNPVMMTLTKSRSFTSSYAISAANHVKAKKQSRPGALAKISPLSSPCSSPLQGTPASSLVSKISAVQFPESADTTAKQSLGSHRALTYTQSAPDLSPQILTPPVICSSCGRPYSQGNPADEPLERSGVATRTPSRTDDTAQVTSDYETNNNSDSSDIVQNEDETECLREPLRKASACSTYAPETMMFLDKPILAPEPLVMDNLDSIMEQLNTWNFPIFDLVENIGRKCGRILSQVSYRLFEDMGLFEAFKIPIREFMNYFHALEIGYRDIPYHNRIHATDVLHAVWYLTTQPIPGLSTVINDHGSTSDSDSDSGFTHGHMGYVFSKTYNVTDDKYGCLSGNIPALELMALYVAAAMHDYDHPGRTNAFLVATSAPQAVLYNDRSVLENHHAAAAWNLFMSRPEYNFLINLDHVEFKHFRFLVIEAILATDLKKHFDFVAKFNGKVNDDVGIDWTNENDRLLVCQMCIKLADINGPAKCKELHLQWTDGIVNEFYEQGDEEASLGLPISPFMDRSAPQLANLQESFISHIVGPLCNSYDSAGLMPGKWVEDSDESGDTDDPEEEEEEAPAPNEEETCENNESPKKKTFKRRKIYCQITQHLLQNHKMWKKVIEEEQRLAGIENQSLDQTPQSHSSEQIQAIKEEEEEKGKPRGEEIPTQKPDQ
Sequence of D(1A) dopamine receptor (P21728 whole entry): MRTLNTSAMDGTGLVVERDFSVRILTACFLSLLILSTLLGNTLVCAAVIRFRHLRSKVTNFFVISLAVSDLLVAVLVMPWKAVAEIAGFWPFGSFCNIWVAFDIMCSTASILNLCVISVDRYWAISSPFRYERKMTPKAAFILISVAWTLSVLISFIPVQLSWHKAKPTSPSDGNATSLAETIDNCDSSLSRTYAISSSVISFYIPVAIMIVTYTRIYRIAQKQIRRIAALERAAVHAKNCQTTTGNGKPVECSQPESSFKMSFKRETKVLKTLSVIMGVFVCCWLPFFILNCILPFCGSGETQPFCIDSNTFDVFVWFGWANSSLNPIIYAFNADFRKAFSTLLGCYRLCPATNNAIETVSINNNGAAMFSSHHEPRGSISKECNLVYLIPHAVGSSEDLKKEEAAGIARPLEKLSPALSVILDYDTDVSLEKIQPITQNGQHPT
Sequence of Delta-type opioid receptor (P41143 whole entry): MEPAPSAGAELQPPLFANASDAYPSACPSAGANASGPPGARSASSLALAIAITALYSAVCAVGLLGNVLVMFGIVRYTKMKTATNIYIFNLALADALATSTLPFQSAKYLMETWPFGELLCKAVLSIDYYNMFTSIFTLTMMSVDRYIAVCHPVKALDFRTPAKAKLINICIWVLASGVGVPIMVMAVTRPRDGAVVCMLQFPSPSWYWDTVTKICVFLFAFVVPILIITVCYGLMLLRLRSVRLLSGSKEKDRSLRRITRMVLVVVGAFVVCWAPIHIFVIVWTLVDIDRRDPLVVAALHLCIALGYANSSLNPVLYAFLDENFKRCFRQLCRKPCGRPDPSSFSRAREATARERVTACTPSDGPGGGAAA
Sequence of Histamine H3 receptor (Q9Y5N1 whole entry): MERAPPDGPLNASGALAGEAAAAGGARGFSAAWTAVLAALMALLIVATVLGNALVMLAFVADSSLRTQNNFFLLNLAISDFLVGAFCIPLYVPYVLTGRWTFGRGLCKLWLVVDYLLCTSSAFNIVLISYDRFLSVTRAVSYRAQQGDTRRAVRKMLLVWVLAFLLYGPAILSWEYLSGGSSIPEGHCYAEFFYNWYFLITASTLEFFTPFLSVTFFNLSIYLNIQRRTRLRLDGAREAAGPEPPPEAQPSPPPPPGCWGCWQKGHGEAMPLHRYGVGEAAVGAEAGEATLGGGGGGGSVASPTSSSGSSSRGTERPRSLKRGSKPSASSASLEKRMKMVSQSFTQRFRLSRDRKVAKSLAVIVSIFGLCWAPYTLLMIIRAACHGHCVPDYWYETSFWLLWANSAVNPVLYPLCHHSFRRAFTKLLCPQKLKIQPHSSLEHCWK

Broadly, the AC50 is the concentration giving half of the maximal activity seen. For the compound `C=C1CC[C@@]2(O)[C@H]3Cc4ccc(O)c5c4[C@@]2(CCN3CC2CC2)[C@H]1O5`, the AC50 (at Adenosine receptor A1; at Histamine H3 receptor; in assay [1]; in assay [2]; in [3]; at D(1A) dopamine receptor) was > 30 µM each time. Besides, the half-maximal activity concentration (AC50) in assay [4] and in assay [5] was > 30 µM throughout.
Turning to `Nc1ncnc2c1ncn2[C@@H]1O[C@H](COP(=O)(O)O)[C@@H](O)[C@H]1O` [ADENOSINE PHOSPHATE], the half-maximal activity concentration (AC50) was > 30 µM at Adenosine receptor A1; > 30 µM on Histamine H3 receptor; > 30 µM in assay [1]; > 30 µM in assay [6]; 16 µM in assay [2]; > 30 µM in assay [3]. Further, the AC50 at D(1A) dopamine receptor was > 30 µM; in assay [4], 14 µM; in assay [5], > 30 µM.
For the compound `CCCC(CCC)C(=O)O[C@H]1C[C@H]2CC[C@@H](C1)[N+]2(C)C` [ANISOTROPINE], the AC50 (at Adenosine receptor A1; at Histamine H3 receptor; in [1]; in assay [6]; in [2]; in assay [3]) was > 30 µM throughout. Also, the AC50 (at D(1A) dopamine receptor; in [4]; in assay [5]) was > 30 µM each time.
With `CCOC(=O)[C@H](CCc1ccccc1)N[C@H]1CCCN2CCC[C@@H](C(=O)O)N2C1=O` [CILAZAPRIL], the AC50 (at Adenosine receptor A1; at Histamine H3 receptor; in assay [1]; in [6]; in assay [2]; in assay [3]) was > 30 µM throughout. For the same compound, the half-maximal activity concentration (AC50) (at D(1A) dopamine receptor; in assay [4]; in assay [5]) was > 30 µM in each case.
`CCCCOc1cc(C(=O)NCCN(CC)CC)c2ccccc2n1` [DIBUCAINE]: the AC50 is > 30 µM at Adenosine receptor A1; > 30 µM in assay [1]; > 30 µM in assay [6]; > 30 µM in assay [2]; > 10 µM in assay [3]; > 10 µM on D(1A) dopamine receptor. The half-maximal activity concentration (AC50) was > 30 µM in [4] and > 10 µM in assay [5].
For the compound `COC(=O)C1=C(C)NC(C)=C(C(=O)OC(C)C)C1c1cccc2nonc12` (configuration not stated) [ISRADIPINE], the AC50 was > 30 µM at Adenosine receptor A1; > 30 µM in assay [1]; 11 µM in [6]; 23 µM in [2]; > 30 µM in assay [3]; > 30 µM on D(1A) dopamine receptor. Besides, the AC50 in [4] is 9 µM; in assay [5], > 30 µM.
Consider `C[C@]12CCC(=O)C=C1CC[C@@H]1[C@@H]2CC[C@@]2(C)[C@H]1CC[C@]2(C)O` [METHYLTESTOSTERONE], for which the AC50 (at Adenosine receptor A1; at Histamine H3 receptor; in [1]; in assay [6]; on Estrogen receptor; in assay [2]) was > 30 µM each time. Also, the AC50 (on D(1A) dopamine receptor; in [4]; in assay [5]) was > 30 µM in each case.
On to `NC(=O)C[S+]([O-])C(c1ccccc1)c1ccccc1` (configuration not stated) [MODAFINIL], for which the AC50 is > 30 µM on Adenosine receptor A1; > 10 µM at Histamine H3 receptor; > 30 µM in [1]; > 10 µM in assay [6]; > 30 µM on Estrogen receptor; > 30 µM in assay [2]. The half-maximal activity concentration (AC50) at D(1A) dopamine receptor was > 10 µM; in [4], > 30 µM; in [5], > 10 µM.
Consider `COc1c(C)c2c(c(O)c1C/C=C(\C)CCC(=O)OCCN1CCOCC1)C(=O)OC2` [MYCOPHENOLATE MOFETIL], for which the concentration at half-maximal activity (AC50) on Adenosine receptor A1 was > 30 µM; on Histamine H3 receptor, > 30 µM; in assay [1] it was > 30 µM; in assay [6], > 30 µM; on Estrogen receptor, > 30 µM; in [2], 17 µM. In addition, the AC50 (on D(1A) dopamine receptor; in [4]; in assay [5]) was > 30 µM in each case.
On to `O=C(O)CCCc1ccccc1` [PHENYLBUTANOIC ACID], for which the AC50 is > 10 µM at Adenosine receptor A1; > 10 µM on Histamine H3 receptor; > 10 µM in assay [1]; > 30 µM in [6]; > 30 µM in assay [2]; > 30 µM in [3]. Besides, the half-maximal activity concentration (AC50) in [4] and in assay [5] was > 30 µM in each case.
Consider `Nc1nc2ccc(OC(F)(F)F)cc2s1` [RILUZOLE], for which the concentration at half-maximal activity (AC50) (at Adenosine receptor A1; on Histamine H3 receptor; in [1]; in assay [6]; on Estrogen receptor; in assay [2]) was > 30 µM each time. Also, the AC50 on D(1A) dopamine receptor was > 30 µM; in [4] it was 14 µM; in assay [5], > 30 µM.
Turning to `C#CCN(C)[C@H](C)Cc1ccccc1` [SELEGILINE], the concentration at half-maximal activity (AC50) is > 10 µM at Adenosine receptor A1; > 10 µM on Histamine H3 receptor; > 10 µM in [1]; > 30 µM in [6]; > 10 µM on Estrogen receptor; > 30 µM in assay [2]. Besides, the half-maximal activity concentration (AC50) was > 10 µM at D(1A) dopamine receptor, > 30 µM in assay [4] and 2.9 µM in [5].
For `CN[C@@H]1[C@H](O)[C@H](NC)[C@H]2O[C@@]3(O)C(=O)C[C@@H](C)O[C@H]3O[C@@H]2[C@H]1O` [SPECTINOMYCIN], the AC50 at Adenosine receptor A1 was > 10 µM; on Histamine H3 receptor it was > 10 µM; in assay [1], > 10 µM; in assay [6], > 30 µM; at Estrogen receptor, > 10 µM; in [2], > 30 µM. For the same compound, the results for the AC50 (at D(1A) dopamine receptor; in assay [4]; in [5]) were > 10 µM, > 30 µM and > 10 µM, respectively.
Take `CC[C@]1(O)C[C@@H]2CN(CCc3c([nH]c4ccccc34)[C@@](C(=O)OC)(c3cc4c(cc3OC)N(C)[C@H]3[C@@](O)(C(N)=O)[C@H](O)[C@]5(CC)C=CCN6CC[C@]43[C@@H]65)C2)C1` [VINDESINE]: the AC50 (on Adenosine receptor A1; on Histamine H3 receptor; in [1]; in assay [6]; on Estrogen receptor; in [2]) was > 30 µM each time. Also, the AC50 (at D(1A) dopamine receptor; in [4]; in assay [5]) was > 30 µM in each case.
